Values joined by “and” are separate entries in the source; they are usually repeats but may differ in a detail not shown here. Equal values may be shown once. “Also recorded” adds a separate entry of the source.
Test system: Pneumocystis carinii
Test: Randomized clinical trial of PCP prophylaxis (Example 8)
Assay type: in vivo, human
[1] = all strata, eligible, PCP within 60 days, 30 mg
[2] = all strata, eligible, PCP within 60 days, 150 mg
[3] = all strata, eligible, PCP within 60 days, 300 mg, p .004 (30 vs 300 mg)
[4] = all strata, eligible, confirmed PCP within 60 days, 30 mg
[5] = all strata, eligible, confirmed PCP within 60 days, 150 mg
[6] = all strata, eligible, confirmed PCP within 60 days, 300 mg, p .0008 (30 vs 300 mg)
[7] = all strata, intention to treat, all PCP, 30 mg
[8] = all strata, intention to treat, all PCP, 150 mg
[9] = all strata, intention to treat, all PCP, 300 mg, p .02 (30 vs 300 mg)
[10] = prior PCP strata, eligible, PCP within 60 days, 30 mg
[11] = prior PCP strata, eligible, PCP within 60 days, 150 mg
[12] = prior PCP strata, eligible, PCP within 60 days, 300 mg, p .006 (30 vs 300 mg)
[13] = prior PCP strata, eligible, confirmed PCP within 60 days, 30 mg
[14] = prior PCP strata, eligible, confirmed PCP within 60 days, 150 mg
[15] = prior PCP strata, eligible, confirmed PCP within 60 days, 300 mg, p .002 (30 vs 300 mg)
[16] = prior PCP strata, intention to treat, all PCP, 30 mg
[17] = prior PCP strata, intention to treat, all PCP, 150 mg
[18] = prior PCP strata, intention to treat, all PCP, 300 mg, p .02 (30 vs 300 mg)

N=C(N)c1ccc(OCCCCCOc2ccc(C(=N)N)cc2)cc1 [pentamidine, p,p'-(pentamethylenedioxy)dibenzamidine]
Completed without Endpoint (300 mg every four weeks): 42
Died, Due to PCP (300 mg every four weeks): 5
Died, Not due to PCP (300 mg every four weeks): 46
Extrapulmonary Pneumocystis (300 mg every four weeks): 0
PCP, Confirmed (300 mg every four weeks): 16
PCP, Unconfirmed (300 mg every four weeks): 12
case fatality rate from first acute PCP episode (16 of 101 PCP episodes): 15.8%
share of all deaths due to PCP (19 of 160): 11.9%
all cause mortality between treatment arms (30, 150, 300 mg): did not significantly differ between the three treatment arms
time to PCP occurrence, dose comparison (Kaplan-Meier, 300 mg every 4 weeks vs 30 mg every 2 weeks, 150 mg vs 30 mg): 300 mg of aerosolized pentamidine given every 4 weeks was consistently superior to 30 mg of aerosolized pentamidine given every 2 weeks and The 150 mg arm was superior to the 30 mg arm but less so than the 300 mg arm
all cause mortality (Kaposi's sarcoma stratum): 36%
deaths due to PCP (all doses): Nineteen deaths occurred due to PCP
deaths (all doses, 408 participants): 160
PCP episodes (all doses, KS stratum): 8
PCP episodes (all doses, Other HIV stratum): 15
PCP episodes (all doses, total and prior PCP stratum): One hundred-one PCP episodes; also recorded: Seventy-eight occurred in the prior PCP stratum
Relative Hazard of PCP: Cox regression (all strata, confirmed PCP on study drug, 30 vs 300): 3.9 and 3.86
Relative Hazard of PCP: Cox regression (all strata, confirmed PCP on study drug, 30 vs. 150): 1.7 and 1.71
No PCP (participants) [1]: 89
PCP (participants) [1]: 28
No PCP (participants) [2]: 102
PCP (participants) [2]: 18
No PCP (participants) [3]: 113
PCP (participants) [3]: 16
No PCP (participants) [4]: 95
PCP (participants) [4]: 22
No PCP (participants) [5]: 104
PCP (participants) [5]: 16
No PCP (participants) [6]: 121
PCP (participants) [6]: 8
No PCP (participants) [7]: 94
PCP (participants) [7]: 41
No PCP (participants) [8]: 102
PCP (participants) [8]: 32
No PCP (participants) [9]: 111
PCP (participants) [9]: 28
Relative Hazard of PCP: Cox regression (all strata, intention to treat, 30 vs 300): 1.78
Relative Hazard of PCP: Cox regression (all strata, intention to treat, 30 vs. 150): 1.21
developed PCP (initial CD4 counts greater than 200, no prior PCP, two of 39): 5.1%
developed PCP (initial CD4 counts less than 200, no prior PCP, 12 of 89): 13%
all cause mortality (other HIV stratum): 13%
Relative Hazard of PCP: Cox regression (prior PCP strata, confirmed PCP on study drug, 30 vs 300): 4.57
Relative Hazard of PCP: Cox regression (prior PCP strata, confirmed PCP on study drug, 30 vs. 150): 2.10
No PCP (participants) [10]: 42
PCP (participants) [10]: 25
No PCP (participants) [11]: 51
PCP (participants) [11]: 16
No PCP (participants) [12]: 60
PCP (participants) [12]: 14
No PCP (participants) [13]: 47
PCP (participants) [13]: 20
No PCP (participants) [14]: 53
PCP (participants) [14]: 14
No PCP (participants) [15]: 66
PCP (participants) [15]: 8
No PCP (participants) [16]: 46
PCP (participants) [16]: 33
No PCP (participants) [17]: 54
PCP (participants) [17]: 24
No PCP (participants) [18]: 59
PCP (participants) [18]: 21
Relative Hazard of PCP: Cox regression (prior PCP strata, intention to treat, 30 vs 300): 2.11
Relative Hazard of PCP: Cox regression (prior PCP strata, intention to treat, 30 vs. 150): 1.40
all cause mortality (prior PCP stratum): 53%
hazard of PCP by start of therapy (start within 3 months of prior PCP vs later, Cox model): less than half the hazard of PCP
time to PCP relapse, median (starting prophylaxis within 3 months of prior PCP): 240 days
time to PCP relapse, median (starting with a longer interval since prior episode): 143 days

Reference: US5364615A (priority 1992, dated 1994)
